The text below walks through data of US20250002470A1, “NITROGEN-CONTAINING COMPOUND, PREPARATION METHOD THEREFOR AND APPLICATION THEREOF” (ZHEJIANG AIXPLORER BIOTECH CO., LTD., priority 2021, published 2025).

One assay deals with hERG potassium channel (Homo sapiens, UniProt Q12809). As to the kind of experiment: Whole-cell patch-clamp (QPatch) of hERG current in HEK293 cells stably expressing hERG. It counts as cell-based. How it is done: In this study, a whole-cell patch-clamp technique was used to study the inhibitory effect of compounds on hERG potassium channels and to evaluate the risk of ventricular repolarization toxicity.
The HEK293 cell line stably expressing the hERG potassium channel cells was purchased from Creacell, Inc. (Cat. No. A-0320).
The HEK293 cell line that can stably express the hERG potassium channel, was cultured in DMEM medium containing 10% fetal bovine serum and 0.8 mg/mL G418 at 37° C. and 5% carbon dioxide.
Before the test, the cells were separated with TrypLET Express, centrifuged after adding medium to terminate digestion, resuspended the cell count, adjusted the cell density to 2-3×10^6 cells/mL, and then lightly mixed the cells on a room temperature equilibration shaker for 15-20 min.
Electrophysiological assays were performed using a fully automated patch-clamp QPatch 48 X (Sophion) device. The prepared cells were placed on a centrifuge on the Qpatch bench, the cells were washed using multiple centrifugation/suspension methods, and the cell culture medium was replaced with extracellular fluid. Remove an MTP-96 plate and place it in the location of the MTP source. Remove the QPlate chip and subsequently place the QPlate at the Qplate source location. The robotic arm scans the MTP-96 board and the QPlate chip barcode and grabs it to the measuring station. Draw the intracellular and external fluid from the liquid pool and add them to the intracellular fluid pool, cell and test cell pool of the QPlate chip, respectively. At the measuring station, all measuring sites on the QPlate undergo initial quality control. The quality control process includes aspirating the cell suspension from the cell vessel of the centrifuge and positioning the cells to the chip wells via a pressure controller to establish a high-resistance seal and create a whole-cell recording pattern.
The voltage stimulation protocol for whole-cell patch-clamp recording of whole-cell hERG potassium currents is as follows: the cell membrane voltage clamps at −80 mV when a whole-cell closure is formed. The clamping voltage is depolarized from −80 mV to −50 mV for 0.5 s (as a leakage current detection), then steps to 30 mV for 2.5 s, and then quickly recovers to −50 mV for 4 s to excite the tail current of the hERG channel. The data were collected repeatedly every 10 s to observe the effect of the drug on the hERG tail current. −50 mV stimulation at 0.5 s was used as the leakage current detection. The test data is collected by Qpatch and stored in the connected service station.
First, the current after the effect of each drug concentration and the blank control current are normalized 0, and then the inhibition rate corresponding to each drug concentration is calculated.
Calculate the mean and standard error for each concentration and calculate the semi-inhibitory concentration for each compound using the following Formula:
Y=Bottom+(Top−Bottom)/(1+10^((LogIC50−X)*HillSlope)) The above Formula was used to fit the dose-dependent effect nonlinearly, where C represents the test substance concentration, IC50 is the semi-inhibitory concentration, and h represents the Hill coefficient. Curve fitting and IC50 calculations were performed using Graphpad software.
In general terms: In patch-clamp work, channel activity is measured electrically.

Another assay deals with T1, NLRP3 (Homo sapiens, UniProt Q96P20).
T1 construct: endogenous in cells; host or cells: THP-1 cells (IFN-γ differentiated, LPS primed, ATP stimulated)
The experiment in a line: IL-1β (interleukin-1β) secretion in IFN-γ-differentiated, LPS/ATP-stimulated THP-1 cells (half inhibition rate of NLRP3). The assay is classed as cell-based. The conditions noted are these: IFN-γ 25 ng/mL, LPS 50 ng/mL, ATP 5 mM. How it is done: Remove THP-1 cells from liquid nitrogen and place in a 37° C. water bath until ice melt. Add the cells to 5 mL of warm cell culture medium and centrifuge at 1,000 rpm for 5 min. Discard the supernatant and resuspend and culture in a new cell culture medium.
THP-1 cells are cultured in the culture medium and passaged every 2-3 days.
2.1.1 Add 100 μL of cell suspension per well to the cell plate and incubate the cell plate in a 37° C., 5% CO2 incubator for 24 hours.
2.2.1 Discard the supernatant of IFN-γ differentiation after differentiation treatment. Add 100 μL of serum-free medium containing LPS (final concentration of 50 ng/mL) to the cell plate. The cell plates were incubated in a 37° C., 5% CO2 incubator for 4 h.
Place the cell plate in an incubator at 37° C. and 5% CO2 for 1 hour.
2.2.3 Add 20 μL of 6×ATP per well according to the plate map (final concentration 5 mM) and incubate the cell plate in a 37° C., 5% CO2 incubator for 1 h. Collect the supernatant (60 μL) and store at −20° C.
The capture antibody mAb Mt175 is diluted to 2 μg/mL with PBS (1:250) and added to the cell plate at 15 μL per well. Keep the plate overnight at 4° C.
2.4.1 Discard the coated antibody and wash 4 times with PBST.
2.4.3 Discard the blocking buffer and wash 4 times with PBST.
2.4.4 Add 25 μL of 2.2.3 collected supernatant sample per well and incubate for 2 h at room temperature.
2.4.5 Discard the samples and wash 4 times with PBST.
2.4.6 Add mAb7P10-biotin (concentration 0.5 ug/mL) to blocking buffer, add 15 μL per well to the cell plate, and incubate for 1 hour at room temperature.
2.4.7 Discard the antibody and wash 4 times with PBST.
2.4.8 Streptavidin-HRP was diluted 1:1000 in blocking buffer, 15 μL per well was added to the cell plate, and incubated for 1 hour at room temperature.
2.4.9 Discard streptavidin-HRP and wash 4 times with PBST.
2.4.10 Add 25 μL of HRP substrate (Surmodics-TMBW-0100-01) per well and incubate the cell plate until a blue product appears.
2.4.11 Add 25 μL of stop solution (Surmodics-LSTP-0100-01) per well, and the blue product turns yellow.
2.4.12 Read the cell plate at 450 nm with a microplate reader.

Chain of hERG potassium channel (Q12809 whole entry): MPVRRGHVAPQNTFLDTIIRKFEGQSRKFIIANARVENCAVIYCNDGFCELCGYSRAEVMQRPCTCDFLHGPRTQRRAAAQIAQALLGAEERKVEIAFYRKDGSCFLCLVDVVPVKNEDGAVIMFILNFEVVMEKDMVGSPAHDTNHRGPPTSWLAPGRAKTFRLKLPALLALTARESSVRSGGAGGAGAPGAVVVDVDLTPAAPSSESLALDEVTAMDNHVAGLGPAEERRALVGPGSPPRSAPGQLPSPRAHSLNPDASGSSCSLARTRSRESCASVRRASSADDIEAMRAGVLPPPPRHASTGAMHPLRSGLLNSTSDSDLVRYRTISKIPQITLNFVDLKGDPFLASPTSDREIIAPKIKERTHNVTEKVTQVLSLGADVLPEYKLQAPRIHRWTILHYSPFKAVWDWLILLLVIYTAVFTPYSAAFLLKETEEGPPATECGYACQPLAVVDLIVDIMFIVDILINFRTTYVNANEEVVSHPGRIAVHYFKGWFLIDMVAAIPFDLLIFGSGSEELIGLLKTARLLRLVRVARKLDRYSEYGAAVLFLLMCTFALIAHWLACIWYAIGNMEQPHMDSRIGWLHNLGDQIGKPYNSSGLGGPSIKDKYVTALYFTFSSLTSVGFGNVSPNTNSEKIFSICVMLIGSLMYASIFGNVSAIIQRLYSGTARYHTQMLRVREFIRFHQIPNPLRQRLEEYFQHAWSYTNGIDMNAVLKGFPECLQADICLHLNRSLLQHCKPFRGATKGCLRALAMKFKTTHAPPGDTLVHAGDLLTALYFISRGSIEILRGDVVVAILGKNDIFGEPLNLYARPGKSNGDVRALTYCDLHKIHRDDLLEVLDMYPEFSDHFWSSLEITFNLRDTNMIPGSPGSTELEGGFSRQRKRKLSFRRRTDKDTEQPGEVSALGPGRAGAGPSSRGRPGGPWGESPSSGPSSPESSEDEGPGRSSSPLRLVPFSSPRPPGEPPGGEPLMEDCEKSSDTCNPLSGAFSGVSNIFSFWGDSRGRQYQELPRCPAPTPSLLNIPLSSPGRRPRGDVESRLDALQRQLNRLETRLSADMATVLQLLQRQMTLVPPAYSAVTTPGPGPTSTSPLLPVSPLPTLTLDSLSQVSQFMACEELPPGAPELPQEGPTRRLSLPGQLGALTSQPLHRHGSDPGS
T1 sequence (Q96P20 whole entry): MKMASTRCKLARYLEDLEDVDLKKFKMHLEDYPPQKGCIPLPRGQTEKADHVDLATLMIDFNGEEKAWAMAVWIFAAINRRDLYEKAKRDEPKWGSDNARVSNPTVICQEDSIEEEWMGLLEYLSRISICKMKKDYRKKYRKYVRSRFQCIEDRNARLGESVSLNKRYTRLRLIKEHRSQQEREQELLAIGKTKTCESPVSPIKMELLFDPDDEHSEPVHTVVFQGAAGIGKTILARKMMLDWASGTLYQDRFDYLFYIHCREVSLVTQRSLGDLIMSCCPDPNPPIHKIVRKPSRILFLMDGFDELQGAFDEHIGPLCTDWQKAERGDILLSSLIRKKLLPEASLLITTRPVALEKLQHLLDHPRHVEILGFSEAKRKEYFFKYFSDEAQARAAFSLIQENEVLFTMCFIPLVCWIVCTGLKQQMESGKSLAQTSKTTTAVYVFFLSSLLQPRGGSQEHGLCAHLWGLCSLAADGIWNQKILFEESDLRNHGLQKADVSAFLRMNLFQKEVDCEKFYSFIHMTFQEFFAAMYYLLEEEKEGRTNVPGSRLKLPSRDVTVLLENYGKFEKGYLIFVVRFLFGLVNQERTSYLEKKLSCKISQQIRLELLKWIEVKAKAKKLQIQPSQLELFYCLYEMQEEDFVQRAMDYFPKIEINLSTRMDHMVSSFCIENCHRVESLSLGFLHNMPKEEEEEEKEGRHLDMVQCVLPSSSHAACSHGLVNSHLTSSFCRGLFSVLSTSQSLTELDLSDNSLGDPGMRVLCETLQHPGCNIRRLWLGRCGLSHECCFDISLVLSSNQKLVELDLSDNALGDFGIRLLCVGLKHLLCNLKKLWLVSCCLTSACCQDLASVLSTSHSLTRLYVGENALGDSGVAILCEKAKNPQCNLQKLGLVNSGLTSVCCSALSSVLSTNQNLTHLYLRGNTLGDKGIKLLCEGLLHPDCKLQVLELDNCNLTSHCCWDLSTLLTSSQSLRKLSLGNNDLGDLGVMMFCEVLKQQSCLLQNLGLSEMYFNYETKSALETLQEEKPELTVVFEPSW

The term IC50 denotes the concentration that gives 50% inhibition. The low end stands for inhibition by little substance, the high end for a need for much substance. `Cc1cc(N[C@@H]2CCCN(C)C2)nnc1-c1ccc(C(F)(F)F)cc1O` [Comparison 3]: on hERG potassium channel, the IC50 was < 10000 nM.
With `Oc1cc(C(F)(F)F)ccc1-c1nnc(N[C@@H]2CCCC[C@H]2O)c2ncccc12` [Embodiment 70, 2-(8-(((1R,2R)-2-hydroxycyclohexyl)amino)pyrido[2,3-d]pyridazin-5-yl)-5-(trifluoromethyl)phenol], the IC50 against NLRP3 was 5.3 nM; against hERG potassium channel it was > 30000 nM.
In the same order, the values of `OCCN1CCC[C@@H](Nc2nnc(-c3ccc(Cl)cc3O)c3ccccc23)C1` [Embodiment 155] are 2.5 nM and > 30000 nM.
Consider `Cc1cc(C)c(-c2cnc(N[C@@H]3CCCN(CCO)C3)nn2)c(O)c1` [Embodiment 2, (R)-2-(3-((1-(2-hydroxyethyl)piperidin-3-yl)amino)-1,2,4-triazin-6-yl)-3,5-dimethylphenol], for which the results for the 50% inhibitory concentration (IC50) against NLRP3 and at hERG potassium channel were 40.2 nM and > 30000 nM, respectively.
In the same order, the values of `Cc1cc(C(F)(F)F)cc(O)c1-c1cnc(N[C@H]2C[C@@](C)(O)C2)nn1` [Embodiment 40, 2-(3-(((cis)-3-hydroxy-3-methylcyclobutyl)amino)-1,2,4-triazin-6-yl)-3-methyl-5-(trifluoromethyl)phenol] are 12.4 nM and > 30000 nM.
As for `CC(CO)N1CCC[C@@H](Nc2nnc(-c3ccc(C(F)(F)F)cc3O)c3ccncc23)C1` (some centres unmarked) [Embodiment 126], the IC50 against NLRP3 was 3.9 nM; on hERG potassium channel, > 30000 nM.
With `Cc1cc(C(F)(F)F)cc(O)c1-c1cnc(N[C@@H]2CCCN(C(C)CO)C2)nn1` (stereo partly drawn) [Embodiment 47, 2-(3-(((3R)-1-(1-hydroxypropyl-2-yl)piperidin-3-yl)amino)-1,2,4-triazin-6-yl)-3-methyl-5-(trifluoromethyl)phenol], the results for the IC50 against NLRP3 and at hERG potassium channel were 4.6 nM and > 30000 nM, respectively.
`Cc1cc(C)c(-c2cnc(N[C@@H]3CCCN(C4CC4)C3)nn2)c(O)c1` [Embodiment 6, (R)-2-(3-((1-cyclopropylpiperidin-3-yl)amino)-1,2,4-triazin-6-yl)-3,5-dimethylphenol]: the IC50 against NLRP3 is 7.4 nM; against hERG potassium channel, > 30000 nM.
For `CC(CO)N1CCC[C@@H](Nc2nnc(-c3ccc(C(F)(F)F)cc3O)c3occc23)C1` (some centres unmarked) [Embodiment 131] the same measures were 7.3 nM and > 30000 nM.
For `Cc1cc(Cl)cc(O)c1-c1cnc(N[C@@H]2CCCC[C@H]2O)nn1` [Embodiment 35, 5-Chloro-2-(3-(((1R,2R)-2-hydroxycyclohexyl)amino)-1,2,4-triazin-6-yl)-3-methylphenol], the half-inhibitory concentration (IC50) against NLRP3 was 12.4 nM; against hERG potassium channel, > 30000 nM.
With `Oc1cc(C(F)(F)F)ccc1-c1nnc(N[C@@H]2CCCC[C@H]2O)c2ccc(F)cc12` [Embodiment 137], the concentration for half-maximal inhibition (IC50) on NLRP3 is 2 nM; at hERG potassium channel, > 30000 nM.
In the same order, the values of `CC(CO)N1CCC[C@@H](Nc2nnc(-c3ccc(C(F)(F)F)cc3O)c3ccoc23)C1` (some centres unmarked) [Embodiment 130] are 1.9 nM and > 30000 nM.
Molecule `CN1CCC[C@@H](Nc2nnc(-c3ccc(C(F)(F)F)cc3O)c3c2CCO3)C1` [Embodiment 19, (R)-2-(4-((1-methylpiperidin-3-yl)amino)-2,3-dihydrofuro[2,3-d]pyridazin-7-yl)-5-(trifluoromethyl)phenol] gave a concentration for half-maximal inhibition (IC50) against NLRP3 of 85.2 nM.
The same measure, in the same setting: in the case of `Cc1cc(C(F)(F)F)cc(O)c1-c1cnc(N[C@@H]2CCCN(C)C2)nn1` [Embodiment 10, (R)-3-methyl-2-(3-((1-methylpiperidin-3-yl)amino)-1,2,4-triazin-6-yl)-5-(trifluoromethyl)phenol] it was 15.5 nM; in that of `Oc1cc(C(F)(F)F)ccc1-c1nnc(N[C@@H]2CCCC[C@H]2O)c2cccnc12` [Embodiment 71], 92.8 nM; in that of `C[C@]1(O)C[C@@H](Nc2nnc(-c3ccc(C(F)(F)F)cc3O)c3ccccc23)C1` [Embodiment 65], 10.4 nM.
`Cc1cc(Cl)cc(O)c1-c1nnc(N[C@@H]2CCCN(C)C2)c2ccccc12` [Embodiment 116] displayed a half-maximal inhibitory concentration (IC50) at NLRP3 of 10.6 nM.
On to `Cc1cc(C(F)(F)F)cc(O)c1-c1cnc(N[C@@H]2CCC[C@@H](O)C2)nn1` [Embodiment 39], for which, on hERG potassium channel, the IC50 was > 30000 nM.
`Cc1nc(N[C@@H]2CCCN(CC3CC3)C2)nnc1-c1ccc(C(F)(F)F)cc1O` [Embodiment 146]: the IC50 against NLRP3 was determined as 7.4 nM.
Same read-out and setting: the result for `Cc1cc(C)c(-c2cnc(NC3CCCN4CCCC34)nn2)c(O)c1` [Embodiment 4, (R)-3,5-dimethyl-2-(9-((1,2,3,5,6,7,8,8a-octahydroindozine-9-yl)amino)-1,2,4-triazin-6-yl)phenol] reads 32.1 nM; that for `Cc1cc(C)c(-c2nnc(N[C@@H]3CCCN(C)C3)nn2)c(O)c1` [Embodiment 26, (R)-3,5-Dimethyl-2-(6-((1-methylpiperidin-3)amino)-1,2,4,5-tetraazin-3)phenol], 446 nM; that for `Cc1nc(N[C@@H]2CCCN(C)C2)nnc1-c1ccc(C(F)(F)F)cc1O` [Embodiment 8, (R)-2-(5-methyl-3-((1-methylpiperidin-3-yl)amino)-1,2,4-triazin-6-yl)-5-(trifluoromethyl)phenol], 1.5 nM.
Same read-out and setting: in the case of `CN1CCC[C@@H](Nc2nnc(-c3ccc(C(F)(F)F)cc3O)c3c(F)cccc23)C1` [Embodiment 122] it was 2.9 nM; in that of `Cc1nc(N[C@@H]2CCCN(C)C2)nnc1-c1ncc(C(F)(F)F)cc1O` [Embodiment 9, (R)-2-(5-methyl-3-((1-methylpiperidin-3-yl)amino)-1,2,4-triazin-6-yl)-5-(trifluoromethyl)pyridin-3-ol], 67 nM; in that of `CCN1CCC[C@@H](Nc2nnc(-c3ccc(C(F)(F)F)cc3O)c(C)n2)C1` [Embodiment 143], 0.9 nM.
On the same count and under the same terms, the result for `CN1CCC[C@@H](Nc2nnc(-c3ccc(Cl)cc3O)c3ncccc23)C1` [Embodiment 124] reads 20.6 nM.
With `Cc1cc(C)c(-c2cnc(N[C@@H]3CCCN(CC(=O)N[C@H]4C[C@@](C)(O)C4)C3)nn2)c(O)c1` [Embodiment 25], the half-inhibitory concentration (IC50) against NLRP3 came out at 317 nM.
Same read-out and setting: in the case of `Cc1cc(Cl)cc(O)c1-c1nnc(N[C@@H]2CCCN(C)C2)c2ncccc12` [Embodiment 125] it was 9.9 nM.
As to `Cc1ccc(-c2nnc(N[C@@H]3CCCN(C)C3)c3ccccc23)c(O)c1` [Embodiment 27, (R)-5-methyl-2-(4-((1-methylpiperidin-3-yl)amino)phthalazin-1-yl)phenol], the IC50 against NLRP3 was found to be 1.4 nM.
Same read-out and setting: in the case of `CN1CCC[C@@H](Nc2nnc(-c3ccc(C(F)(F)F)cc3O)c3cnccc23)C1` [Embodiment 30, (R)-2-(1-((1-methylpiperidin-3-yl)amino)pyrido[3,4-d]pyridazin-4-yl)-5-(trifluoromethyl)phenol] it was 2.9 nM.
